In brackets after ≈: the same amount, converted by molar mass. Like-named read-outs stand apart in the source and are kept apart here. Numbered stars: 1 amine (or outer) side, 2 acyl side, 3 side chain; on linkers, the order of the positions; unused ones are H or OH. Bridge positions count the residues as written; N and C are the ends. Peptide text beside a SMILES is read from it. I, II: the chains in the order shown. X2 = c1ccc([Si](O[*:1])(O[*:2])c2ccccc2)cc1; OSiEt2O = CC[Si](CC)(O[*:1])O[*:2]
What was measured:
Lymphome = assay: Effect on lymphomas
Maus = assay: Pharmacological observation in the mouse (central, vegetative and toxic effects, acute toxicity); assay type: in vivo; conditions: for oLD (orienberende letale Dosis): mouse, in vivo
Description: Pharmakologische Untersuchungen an der Maus
Die Verbindungen wurden an der Maus auf zentrale, vegetative und toxische Effekte geprüft. Durch systemische Einzelbeobachtungen sind neben der akuten Toxizität (orienberende letale Dosis, oLD) zentrale und vegetative Wirkungen der Testsubstanzen, insbesondere Effekte auf die Motorik und das Reaktionsvermögen, die Haut- und Rektaltemperatur sowie auf die Pupillenmotorik erfasst worden. Die getesteten Dosierungen betrugen 5 •10^-4, 1 • 10^-3 und 5 • 10^-3 mol/kg Körpergewicht Letale Wirkungen konnten bei keiner der Verbindungen beobachtet werden. Die oLD lag für Di(tetradecanoyloxy)dimethylsilan und Di(octadecanoyloxy)dimethylsilan unter 1 • 10^-3 mol/kg Körpergewicht für alle übrigen Verbindungen unter 5 • 10^-3 mollkg Körpergewicht.

Osteosarkome = assay: Effect on osteosarcomas
Basalzellkarzinome = assay: Effect on basal cell carcinomas
[1] = tested on: Kälber-Aortenendothelzellinie BKEz-7; assay: tissue or blood; assay type: cell-based; conditions: for IC50: suspensions, 48 Stunden bei 37°C
Description: Prüfung auf zytotoxisches Potential an Kälber-Aortenendothelzellinie BKEz-7
Als Marker für eine zytotoxische Wirkung wird bei Zellen der charakterisierten Kälber-Aortenendothelzellinie BKEz-7 die Hemmkonzentration ermittelt, bei der eine 50%-ige Hemmung der Zellproliferation erfolgt (im Vergleich zu Kontrollkulturen ohne Zusatz eines Zellinhibitors). Die resultierende Reduzierung der Zellzahl um 50% wird als IC 50 ausgedrückt. Die getesteten Silanverbindungen wurden als Suspensionen auf die Kulturen gegeben und 48 Stunden bei 37°C inkubiert. Zusätzlich erfolgten morphologische Kontrollen und Vitalitätsbestimmungen mittels dem Neutralrot-Test. Mit Ausnahme des Di(dodecanoyloxy)dimethylsilans standen alle Ergebnisse der morphologischen Untersuchungen in guter Übereinstimmung. […]

Seminome = assay: Effect on seminomas
Angiosarkome = assay: Effect on angiosarcomas
colo205 (Kofon-Karzinom) = assay: MTT test, triplicate, two-fold dilutions; assay type: cell-based; conditions: Homo sapiens
Description: (§1) Die Silan wurden in Ethanol aufgelöst und in Zellkulturmedien in Konzentrationen von bis zu 500 µg/ml resuspendiert. Es wurden MTT Tests in dreifacher Ausführung durchgeführt, für welche doppelte Lösungen (7 Schritte) und colo205 (Kofon-Karzinom), BxPC3 (pankreatisches Adenokarzinom) sowie T47D (Brustkrebs) benutzt wurden.

T47D (Brustkrebs) = assay: MTT test, triplicate, two-fold dilutions; assay type: cell-based; conditions: Homo sapiens, T47D, read-out: IC50 T47D
Description: as §1

[2] = tested on: BxPC3 (pankreatisches Adenokarzinom); assay: MTT test, triplicate, two-fold dilutions; assay type: cell-based; conditions: Homo sapiens
Description: as §1

[3] = COLO 205, read-out: IC50 Colo205

## CCCCCCCC/C=C\CCCCCCCC(=O)O[Si](C)(C)OC(=O)CCCCCCC/C=C\CCCCCCCC
Lymphome
  Wirkung auf Lymphome: zeigen eine Wirkung

## CC/C=C\C/C=C\C/C=C\CCCCCCCC(=O)O[Si](C)(C)OC(=O)CCCCCCC/C=C\C/C=C\C/C=C\CC [Di (lino-lenoylooxy)dimethylsilan]
Lymphome
  Wirkung auf Lymphome: zeigen eine Wirkung

## CCCCCCCCCC(=O)O[Si](C)(C)OC(=O)CCCCCCCCC [Di(decanoyloxy)dimethylsilan]
Maus; 1•10^-3 mol/kg
  zentrale, vegetative und toxische Effekte (Verhaltensänderungen): Piloerektion
Maus; 5•10^-3 mol/kg
  zentrale, vegetative und toxische Effekte (Verhaltensänderungen): schwach bis mäßig ausgeprägte Verhaltensänderung en
Maus; 5•10^-4 mol/kg
  zentrale, vegetative und toxische Effekte (Verhaltensänderungen): keine Verhaltensänderungen
Osteosarkome
  Wirkung auf Osteosarkome: zeigen eine Wirkung

## CCCCCCCCCC(=O)O[Si](OC(=O)CCCCCCCCC)(c1ccccc1)c1ccccc1 [Di(decanoyloxy)diphenylsilan]
Basalzellkarzinome
  Wirkung auf Basalzellkarzinome: zeigen eine Wirkung
[1]
  Bedenkliche Toxizität: -
  IC50: 14 µM
Maus; 1•10^-3 mol/kg
  zentrale, vegetative und toxische Effekte (Verhaltensänderungen): keine Verhaltensänderungen
Maus; 5•10^-3 mol/kg
  zentrale, vegetative und toxische Effekte (Verhaltensänderungen): schwache Ataxie
Maus; 5•10^-4 mol/kg
  zentrale, vegetative und toxische Effekte (Verhaltensänderungen): keine Verhaltensänderungen

## CCCCCCCCCC(=O)O[Si](CCC)(CCC)OC(=O)CCCCCCCCC [Di(decanoyloxy)dipropylsilan]
Seminome
  Wirkung auf Seminome: zeigen eine Wirkung

## CCCCCCCCCCCC(=O)O[Si](OC(=O)CCCCCCCCCCC)(c1ccccc1)c1ccccc1 [Di(dodecanoyloxy)diphenylsilan]
Basalzellkarzinome
  Wirkung auf Basalzellkarzinome: zeigen eine Wirkung
[1]
  Bedenkliche Toxizität: -
  IC50: 36 µM
Maus; 1•10^-3 mol/kg
  zentrale, vegetative und toxische Effekte (Verhaltensänderungen): keine Verhaltensänderungen
Maus; 5•10^-3 mol/kg
  zentrale, vegetative und toxische Effekte (Verhaltensänderungen): keine Verhaltensänderungen
Maus; 5•10^-4 mol/kg
  zentrale, vegetative und toxische Effekte (Verhaltensänderungen): keine Verhältensänderungen

## CCCCCCCCCCCCCCCCC(=O)O[Si](OC(=O)CCCCCCCCCCCCCCCC)(C(C)C)C(C)C [Di(heptadecanoyloxy)diisopropylsilan]
Lymphome
  Wirkung auf Lymphome: zeigen eine Wirkung

## CCCCC/C=C\C/C=C\CCCCCCCC(=O)O[Si](CC)(CC)OC(=O)CCCCCCC/C=C\C/C=C\CCCCC [Di(linoylooxy)diethylsilan]
Lymphome
  Wirkung auf Lymphome: zeigen eine Wirkung

## CCCCC/C=C\C/C=C\CCCCCCCC(=O)O[Si](C)(C)OC(=O)CCCCCCC/C=C\C/C=C\CCCCC [Di(linoylooxy)dimethylsilan]
Lymphome
  Wirkung auf Lymphome: zeigen eine Wirkung

## CCCCCCCCC(=O)O[Si](C)(C)OC(=O)CCCCCCCC [Di(nonanoyloxy)dimethylsilan]
Osteosarkome
  Wirkung auf Osteosarkome: zeigen eine Wirkung

## CCCCCCCCC(=O)O[Si](CCC)(CCC)OC(=O)CCCCCCCC [Di(nonanoyloxy)dipropylsilan]
Seminome
  Wirkung auf Seminome: zeigen eine Wirkung

## CCCCCCCCCCCCCCCCCC(=O)O[Si](OC(=O)CCCCCCCCCCCCCCCCC)(C(C)C)C(C)C [Di(octadecanoyloxy)diisopropylsilan]
Lymphome
  Wirkung auf Lymphome: zeigen eine Wirkung

## CCCCCCCCCCCCCCCCCC(=O)O[Si](C)(C)OC(=O)CCCCCCCCCCCCCCCCC [Di(octadecanoyloxy)dimethylsilan]
[1]
  Bedenkliche Toxizität: -
  IC50: 495 µM
Maus; 1•10^-3 mol/kg
  zentrale, vegetative und toxische Effekte (Verhaltensänderungen): keine Verhaltensänderungen
Maus; 5•10^-4 mol/kg
  zentrale, vegetative und toxische Effekte (Verhaltensänderungen): keine Verhaltensänderungen
Maus
  oLD (orienberende letale Dosis): < 1 • 10^-3 mol/kg Körpergewicht
Osteosarkome
  Wirkung auf Osteosarkome: zeigen eine Wirkung

## CCCCCCCC(=O)O[Si](C)(C)OC(=O)CCCCCCC [Di(octanoyloxy)dimethylsilan]
Osteosarkome
  Wirkung auf Osteosarkome: zeigen eine Wirkung

## CCCCCCCC(=O)O[Si](OC(=O)CCCCCCC)(c1ccccc1)c1ccccc1 [Di(octanoyloxy)diphenylsilan]
Basalzellkarzinome
  Wirkung auf Basalzellkarzinome: zeigen eine Wirkung
[1]
  Bedenkliche Toxizität: -
  IC50: > 20 µM
Maus; 1•10^-3 mol/kg
  zentrale, vegetative und toxische Effekte (Verhaltensänderungen): Ataxie, Hyper-aktivität
Maus; 5•10^-3 mol/kg
  zentrale, vegetative und toxische Effekte (Verhaltensänderungen): schwache Ataxie, Hyperaktivität
Maus; 5•10^-4 mol/kg
  zentrale, vegetative und toxische Effekte (Verhaltensänderungen): schwache Hyperaktivität

## CCCCCCCCCCCCCC(=O)O[Si](C)(C)OC(=O)CCCCCCCCCCCCC [Di(tetradecanoyloxy)dimethylsilan]
[1]
  Bedenkliche Toxizität: -
  IC50: 110 µM
Maus; 1•10^-3 mol/kg
  zentrale, vegetative und toxische Effekte (Verhaltensänderungen): Ataxie
Maus; 5•10^-4 mol/kg
  zentrale, vegetative und toxische Effekte (Verhaltensänderungen): schwache Ataxie, Piloerektion
Maus
  oLD (orienberende letale Dosis): < 1 • 10^-3 mol/kg Körpergewicht
Osteosarkome
  Wirkung auf Osteosarkome: zeigen eine Wirkung

## CCCCCCCCCCC(=O)O[Si](CCC)(CCC)OC(=O)CCCCCCCCCC [Di(undecanoyloxy) dipropylsilan]
Seminome
  Wirkung auf Seminome: zeigen eine Wirkung

## CC[Si](CC)(OC(=O)CNC(=O)CNC(=O)CNC(=O)CNC(=O)CNC(=O)CN)OC(=O)CNC(=O)CNC(=O)CNC(=O)CNC(=O)CNC(=O)CN [Diethyl bis(hexaglycyl)Silylester]
Angiosarkome
  Wirkung gegen Angiosarkome: zeigen eine Wirkung

## CC[Si](CC)(OC(=O)CNC(=O)CNC(=O)CNC(=O)CNC(=O)CNC(=O)CNC(=O)CNC(=O)CN)OC(=O)CNC(=O)CNC(=O)CNC(=O)CNC(=O)CNC(=O)CNC(=O)CNC(=O)CN [Diethyl bis(octablycyl)silylester] (I: H-GGGGGGGG / II: H-GGGGGGGG; linker I:C-II:C via OSiEt2O)
Angiosarkome
  Wirkung gegen Angiosarkome: zeigen eine Wirkung

## C[C@H](N)C(=O)N[C@@H](C)C(=O)N[C@@H](C)C(=O)N[C@@H](C)C(=O)N[C@@H](C)C(=O)N[C@@H](C)C(=O)N[C@@H](C)C(=O)N[C@@H](C)C(=O)N[C@@H](C)C(=O)N[C@@H](C)C(=O)O[Si](OC(=O)[C@H](C)NC(=O)[C@H](C)NC(=O)[C@H](C)NC(=O)[C@H](C)NC(=O)[C@H](C)NC(=O)[C@H](C)NC(=O)[C@H](C)NC(=O)[C@H](C)NC(=O)[C@H](C)NC(=O)[C@H](C)N)(c1ccccc1)c1ccccc1 [Diphenyl bis(decaalanyl)silylester]
Angiosarkome
  Wirkung gegen Angiosarkome: zeigen eine Wirkung

## CC(C)[C@H](N)C(=O)N[C@H](C(=O)N[C@H](C(=O)N[C@H](C(=O)N[C@H](C(=O)N[C@H](C(=O)N[C@H](C(=O)O[Si](OC(=O)[C@@H](NC(=O)[C@@H](NC(=O)[C@@H](NC(=O)[C@@H](NC(=O)[C@@H](NC(=O)[C@@H](NC(=O)[C@@H](N)C(C)C)C(C)C)C(C)C)C(C)C)C(C)C)C(C)C)C(C)C)(c1ccccc1)c1ccccc1)C(C)C)C(C)C)C(C)C)C(C)C)C(C)C)C(C)C [Diphenyl bis(heptavalyl)silylester] (I: H-VVVVVVV / II: H-VVVVVVV; linker I:C-II:C via X2)
Angiosarkome
  Wirkung gegen Angiosarkome: zeigen eine Wirkung

## CC(C)[C@H](N)C(=O)N[C@H](C(=O)N[C@H](C(=O)N[C@H](C(=O)N[C@H](C(=O)N[C@H](C(=O)O[Si](OC(=O)[C@@H](NC(=O)[C@@H](NC(=O)[C@@H](NC(=O)[C@@H](NC(=O)[C@@H](NC(=O)[C@@H](N)C(C)C)C(C)C)C(C)C)C(C)C)C(C)C)C(C)C)(c1ccccc1)c1ccccc1)C(C)C)C(C)C)C(C)C)C(C)C)C(C)C [Diphenyl bis(hexavalyl)silylester] (I: H-VVVVVV / II: H-VVVVVV; linker I:C-II:C via X2)
Angiosarkome
  Wirkung gegen Angiosarkome: zeigen eine Wirkung

## CCCCCCCCCCCCC(=O)O[Si](CC)(CC)OC(=O)CCCCCCCCCCCC [Si 6, Di (tridecanoyloxy) diethylsilan]
colo205 (Kofon-Karzinom); [3]
  IC50: 240 µg/mL (≈ 468 µM)
T47D (Brustkrebs)
  IC50: 250 µg/mL (≈ 487 µM)
[2]; BXPC-3, read-out: IC50 BxPC3
  IC50: 150 µg/mL (≈ 292 µM)

## CCCCCCCCCCCCCCCC(=O)O[Si](OC(=O)CCCCCCCCCCCCCCC)(c1ccccc1)c1ccccc1 [Si 8, Di (hexadecanoyloxy) diphenylsilan]
colo205 (Kofon-Karzinom); COLO 205, up to 500 µg/ml, read-out: IC50 Colo205
  IC50: 300 µg/mL (≈ 433 µM)
T47D (Brustkrebs); up to 500 µg/ml
  IC50: 20 µg/mL (≈ 28.9 µM)
[2]; BXPC-3, up to 500 µg/ml, read-out: IC50 BxPC3
  IC50: 30 µg/mL (≈ 43.3 µM)
Basalzellkarzinome
  Wirkung auf Basalzellkarzinome: zeigen eine Wirkung
Maus; 1•10^-3 mol/kg
  zentrale, vegetative und toxische Effekte (Verhaltensänderungen): keine Verhaltensänderungen
Maus; 5•10^-3 mol/kg
  zentrale, vegetative und toxische Effekte (Verhaltensänderungen): schwache Ataxie, Hyperaktivität und Piloerektion, Straubtail
Maus; 5•10^-4 mol/kg
  zentrale, vegetative und toxische Effekte (Verhaltensänderungen): keine Verhaltensänderungen

## CCCCCCCCCCCCCC(=O)O[Si](CC)(CC)OC(=O)CCCCCCCCCCCCC [Si 14, Di (tetradecanoyloxy) diethylsilan]
colo205 (Kofon-Karzinom); [3]
  IC50: 250 µg/mL (≈ 462 µM)
T47D (Brustkrebs)
  IC50: 65 µg/mL (≈ 120 µM)
[2]; BXPC-3, read-out: IC50 BxPC3
  IC50: 70 µg/mL (≈ 129 µM)

— EP1948196B1, “USE OF TETRAORGANOSILICON COMPOUNDS” (Salama, Zoser B., priority 2005, dated 2007)
